Measurements: patent publication US4472404A, “8-Quinolinyl carbamates and their use as urinary tract antimicrobials” (priority 1982, dated 1984)
Converted amounts (≈) assume the structure as drawn.

Assays:
Assay type in all cases: cell-based
[1] = test system: Aspergillus niger; assay: Agar-plate minimum inhibitory concentration (Example 12); details: agar, 72-120 hours, read-out: Minimum Inhibitory Concentration
Procedure: (§1) The test compound was added to molten agar as a solution (when conveniently soluble in a solvent such as dimethylformamide) or a suspension forming a mixture having a concentration of 0.05 percent (500 ppm). The mixture was stirred and poured into plates to harden. When hardened, the plates were inoculated with various bacteria and fungi. The bacteria-inoculated plates were incubated at 37° C. for 24 hours, while the fungi-inoculated plates were incubated for about 72-120 hours. Following incubation, the plates were examined for growth or inhibition of the respective organisms.
(§2) After the initial readings, compounds showing sufficient activity were re-tested at various concentrations to determine the minimum inhibitory concentration (in ppm) of the compounds of the invention against the various bacteria and fungi tested.

[2] = test system: Bacillus subtilis; assay: as above; details: agar, 37° C., 24 hours, read-out: Minimum Inhibitory Concentration
Procedure: as §1, §2

[3] = test system: Candida albicans; assay: as above; details: agar, 72-120 hours, read-out: Minimum Inhibitory Concentration
Procedure: as §1, §2

[4] = test system: Candida pelliculosa; assay: as above; details: Hansenula anomala; Candida pelliculosa; agar, 72-120 hours; read-out: Minimum Inhibitory Concentration
Procedure: as §1, §2

[5] = test system: Ceratocystis ips; assay: as above; details: Ceratocystis ips; agar, 72-120 hours; read-out: Minimum Inhibitory Concentration
Procedure: as §1, §2

[6] = test system: Salmonella typhosa; assay: as above; details: Salmonella enterica; Salmonella typhosa; agar, 37° C., 24 hours; read-out: Minimum Inhibitory Concentration
Procedure: as §1, §2

[7] = test system: Streptococcus mutans; assay: as above; details: agar, 37° C., 24 hours, read-out: Minimum Inhibitory Concentration
Procedure: as §1, §2

[8] = test system: Trichophyton mentagrophytes; assay: as above; details: agar, 72-120 hours, read-out: Minimum Inhibitory Concentration
Procedure: as §1, §2

[9] = test system: Enterobacter aerogenes ATCC 13048; assay: Minimum inhibitory concentration, urinary tract organisms (Example 13); details: Klebsiella aerogenes, ATCC13048; Ea 13048; read-out: Minimum Inhibitory Concentration
Procedure: as §1, §2
(§3) Following a procedure substantially the same as that described in Example 12, the minimum inhibitory concentration for the compounds described herein was determined for various organisms representative of those commonly associated with urinary tract infections.
(§4) The organisms used in this procedure and the abbreviations designated in Table 3 are as follows: […]

[10] = test system: Escherichia coli ATCC 11229; assay: as above; details: ATCC11229, Ec 11229, read-out: Minimum Inhibitory Concentration
Procedure: as §1, §2, §3, §4

[11] = test system: Escherichia coli ATCC 25922; assay: as above; details: ATCC25922, Ec 25922, read-out: Minimum Inhibitory Concentration
Procedure: as §1, §2, §3, §4

[12] = test system: Escherichia coli ATCC 4157; assay: as above; details: ATCC4157, Ec 4157, read-out: Minimum Inhibitory Concentration
Procedure: as §1, §2, §3, §4

[13] = test system: Escherichia coli ATCC 9723; assay: as above; details: ATCC9723, Ec 9723, read-out: Minimum Inhibitory Concentration
Procedure: as §1, §2, §3, §4

[14] = test system: Klebsiella pneumoniae ATCC 23357; assay: as above; details: ATCC23357, Kp 23357, read-out: Minimum Inhibitory Concentration
Procedure: as §1, §2, §3, §4

[15] = test system: Klebsiella pneumoniae M-1; assay: as above; details: M1, Kp M-1, read-out: Minimum Inhibitory Concentration
Procedure: as §1, §2, §3, §4

[16] = test system: Klebsiella pneumoniae M-2; assay: as above; details: M2, Kp M-2, read-out: Minimum Inhibitory Concentration
Procedure: as §1, §2, §3, §4

[17] = test system: Klebsiella pneumoniae M-6; assay: as above; details: M6, Kp M-6, read-out: Minimum Inhibitory Concentration
Procedure: as §1, §2, §3, §4

[18] = test system: Proteus mirabilis 470/1; assay: as above; details: Pm 470/1, read-out: Minimum Inhibitory Concentration
Procedure: as §1, §2, §3, §4

[19] = test system: Pseudomonas aeruginosa ATCC 10145; assay: as above; details: ATCC10145, Pa 10145, read-out: Minimum Inhibitory Concentration
Procedure: as §1, §2, §3, §4

[20] = test system: Pseudomonas aeruginosa ATCC 27853; assay: as above; details: ATCC27853, Pa 27853, read-out: Minimum Inhibitory Concentration
Procedure: as §1, §2, §3, §4

[21] = test system: Pseudomonas aeruginosa ATCC 7700; assay: as above; details: ATCC7700, Pa 7700, read-out: Minimum Inhibitory Concentration
Procedure: as §1, §2, §3, §4

[22] = test system: Pseudomonas aeruginosa PRD-10; assay: as above; details: PRD10, Pa PRD-10, read-out: Minimum Inhibitory Concentration
Procedure: as §1, §2, §3, §4

[23] = test system: Serratia marcescens M-1; assay: as above; details: M1, Sr M-1, read-out: Minimum Inhibitory Concentration
Procedure: as §1, §2, §3, §4

[24] = test system: Staphylococcus aureus ATCC 25923; assay: as above; details: ATCC25923, Sa 25923, read-out: Minimum Inhibitory Concentration
Procedure: as §1, §2, §3, §4

SMILES	MIC [1]	MIC [2]	MIC [3]	MIC [4]	MIC [5]	MIC [6]	MIC [7]	MIC [8]	MIC [9]	MIC [10]	MIC [11]	MIC [12]	MIC [13]	MIC [14]	MIC [15]	MIC [16]	MIC [17]	MIC [18]	MIC [19]	MIC [20]	other results
CCOC(=O)CNC(=O)Oc1ccc(Cl)c2cccnc12 [Example 1, Ethyl N-(((5-chloro-8-quinolinyl)oxy)-carbonyl)glycinate]	10 mg/L (≈ 32.4 µM)	10 mg/L (≈ 32.4 µM)	10 mg/L (≈ 32.4 µM)	10 mg/L (≈ 32.4 µM)	50 mg/L (≈ 162 µM)	50 mg/L (≈ 162 µM)	100 mg/L (≈ 324 µM)	10 mg/L (≈ 32.4 µM)	50 mg/L (≈ 162 µM)	25 mg/L (≈ 81 µM)	25 mg/L (≈ 81 µM)	25 mg/L (≈ 81 µM)	25 mg/L (≈ 81 µM)	25 mg/L (≈ 81 µM)	50 mg/L (≈ 162 µM)	50 mg/L (≈ 162 µM)	25 mg/L (≈ 81 µM)	50 mg/L (≈ 162 µM)	25 mg/L (≈ 81 µM)	100 mg/L (≈ 324 µM)	MIC [21]: 100 mg/L (≈ 324 µM); MIC [22]: 100 mg/L (≈ 324 µM); MIC [23]: 50 mg/L (≈ 162 µM); MIC [24]: ≤ 5 mg/L
CCOC(=O)CNC(=O)Oc1c(Br)cc(Br)c2cccnc12 [Example 2, Ethyl N-(((5,7-dibromo-8-quinolinyl)oxy)carbonyl)glycinate]	50 mg/L (≈ 116 µM)	0.5 mg/L (≈ 1.16 µM)	50 mg/L (≈ 116 µM)	10 mg/L (≈ 23.1 µM)	50 mg/L (≈ 116 µM)	50 mg/L (≈ 116 µM)	50 mg/L (≈ 116 µM)	50 mg/L (≈ 116 µM)	75 mg/L (≈ 174 µM)	25 mg/L (≈ 57.9 µM)	25 mg/L (≈ 57.9 µM)	25 mg/L (≈ 57.9 µM)	25 mg/L (≈ 57.9 µM)	250 mg/L (≈ 579 µM)	50 mg/L (≈ 116 µM)	25 mg/L (≈ 57.9 µM)	25 mg/L (≈ 57.9 µM)	25 mg/L (≈ 57.9 µM)	25 mg/L (≈ 57.9 µM)	75 mg/L (≈ 174 µM)	MIC [21]: 250 mg/L (≈ 579 µM); MIC [22]: 75 mg/L (≈ 174 µM); MIC [23]: 250 mg/L (≈ 579 µM); MIC [24]: 25 mg/L (≈ 57.9 µM)
CCOC(=O)CNC(=O)Oc1cccc2ccc(C)nc12 [Example 3, Ethyl N-(((2-methyl-8-quinolinyl)oxy)carbonyl)glycinate]	500 mg/L (≈ 1730 µM)	10 mg/L (≈ 34.7 µM)	500 mg/L (≈ 1730 µM)	500 mg/L (≈ 1730 µM)	500 mg/L (≈ 1730 µM)	50 mg/L (≈ 173 µM)	500 mg/L (≈ 1730 µM)	500 mg/L (≈ 1730 µM)	250 mg/L (≈ 867 µM)	75 mg/L (≈ 260 µM)	75 mg/L (≈ 260 µM)	100 mg/L (≈ 347 µM)	100 mg/L (≈ 347 µM)	250 mg/L (≈ 867 µM)	250 mg/L (≈ 867 µM)	250 mg/L (≈ 867 µM)	250 mg/L (≈ 867 µM)	250 mg/L (≈ 867 µM)	250 mg/L (≈ 867 µM)	> 1000 mg/L	MIC [21]: > 1000 mg/L; MIC [22]: > 1000 mg/L; MIC [23]: 750 mg/L (≈ 2600 µM); MIC [24]: 25 mg/L (≈ 86.7 µM)
CCOC(=O)CNC(=O)Oc1c(Cl)cc(Cl)c2cccnc12 [Example 4, Ethyl N-(((5,7-dichloro-8-quinolinyl)oxy)carbonyl)glycinate]	10 mg/L (≈ 29.1 µM)	1 mg/L (≈ 2.91 µM)	10 mg/L (≈ 29.1 µM)	5 mg/L (≈ 14.6 µM)	50 mg/L (≈ 146 µM)	10 mg/L (≈ 29.1 µM)	500 mg/L (≈ 1460 µM)	10 mg/L (≈ 29.1 µM)	25 mg/L (≈ 72.9 µM)	10 mg/L (≈ 29.1 µM)	10 mg/L (≈ 29.1 µM)	10 mg/L (≈ 29.1 µM)	10 mg/L (≈ 29.1 µM)	25 mg/L (≈ 72.9 µM)	25 mg/L (≈ 72.9 µM)	25 mg/L (≈ 72.9 µM)	25 mg/L (≈ 72.9 µM)	10 mg/L (≈ 29.1 µM)	10 mg/L (≈ 29.1 µM)	50 mg/L (≈ 146 µM)	MIC [21]: 50 mg/L (≈ 146 µM); MIC [22]: 50 mg/L (≈ 146 µM); MIC [23]: 25 mg/L (≈ 72.9 µM); MIC [24]: 10 mg/L (≈ 29.1 µM)
